Values belong to the molecule of their own block, whether it stands above or below them.
Target: T1, Bcl-2 protein (Recombinant Human Bcl-2 Protein) (Homo sapiens, UniProt P10415)
T1 construct: purchased Novus NBP2-34889
Assay: Binding evaluation of mixture library compounds to Bcl-2 using AS-MS (affinity selection mass spectrometry)
Conditions: for ASMS ratio (%) n = 1 / ASMS ratio (%) n = 2: ASMS Ratio(%)=(A−C)/B×100; for ASMS ratio (%) n = 1: replicate n = 1; for ASMS ratio (%) n = 2: replicate n = 2
Procedure, shortened: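 ASMS Ratio (%) was calculated as (A−C)/B×100, where A is the protein sample after SEC, B the protein-free sample without SEC and C the protein-free sample after SEC. Each compound was at […] in a 1200-member pool with 20 μM Bcl-2, incubated 1 h at 23° C.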

[1] = AS-MS, mixture of 1200 compounds, Bcl-2
[2] = AS-MS on the mixture of 1200 library compounds

T1 sequence (P10415 whole entry): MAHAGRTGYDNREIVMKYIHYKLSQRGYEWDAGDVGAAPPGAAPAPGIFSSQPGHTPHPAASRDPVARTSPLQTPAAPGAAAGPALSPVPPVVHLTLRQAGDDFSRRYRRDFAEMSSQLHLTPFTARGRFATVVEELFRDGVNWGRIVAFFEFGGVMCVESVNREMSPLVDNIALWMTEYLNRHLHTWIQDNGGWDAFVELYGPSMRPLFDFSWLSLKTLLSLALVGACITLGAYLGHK

- ASMS ratio (%) n = 1 [1]: −0.5%
- ASMS ratio (%) n = 2 [1]: −1.9%
Molecule: CCOc1cccc(-c2cnn(-c3cc(C(=O)N4CCN(c5ccc(C(=O)NCC(F)(F)F)nn5)CC4)cc(C(F)(F)F)c3)c2)c1 [B1K021-01, 6-[4-[3-[4-(3-Ethoxyphenyl)pyrazol-1-yl]-5-(trifluoromethyl)benzoyl]piperazin-1-yl]-N-(2,2,2-trifluoroethyl)pyridazine-3-carboxamide]

- ASMS ratio (%) n = 1 [2]: 0.0%
- ASMS ratio (%) n = 2 [2]: 0.0%
Molecule: CCOc1cncc(-c2ccc(C(=O)N3CCN(c4ccc(C(=O)N(C)CC56CC7CC(CC(C7)C5)C6)nn4)CC3)cc2F)c1 [B3A006-01, N-(1-Adamantylmethyl)-6-[4-[4-(5-ethoxypyridin-3-yl)-3-fluorobenzoyl]piperazin-1-yl]-N-methylpyridazine-3-carboxamide]

- ASMS ratio (%) n = 1 [1]: 3.0%
- ASMS ratio (%) n = 2 [1]: −2.9%
Molecule: CCOc1cncc(-c2ccc(C(=O)N3CCN(c4ccc(C(=O)NCC56CC7CC(CC(C7)C5)C6)cc4)CC3)cc2C)c1 [B1A026-01, N-(1-Adamantylmethyl)-4-[4-[4-(5-ethoxypyridin-3-yl)-3-methylbenzoyl]piperazin-1-yl]benzamide]

- ASMS ratio (%) n = 1 (AS-MS, mixture library, Bcl-2): 12.4%
- ASMS ratio (%) n = 2 (AS-MS, mixture library, Bcl-2): −13.4%
Molecule: CCOc1cccc(-c2cnn(-c3cc(C(=O)N4CCN(c5ccc(C(=O)NS(=O)(=O)c6ccc(NCCSc7ccccc7)c([N+](=O)[O-])c6)cc5)CC4)cc(C(F)(F)F)c3)c2)c1 [B2Q043-01, 4-[4-[3-[4-(3-Ethoxyphenyl)pyrazol-1-yl]-5-(trifluoromethyl)benzoyl]piperazin-1-yl]-N-[3-nitro-4-(2-phenylsulfanylethylamino)phenyl]sulfonylbenzamide]

- ASMS ratio (%) n = 1 [2]: 1.8%
- ASMS ratio (%) n = 2 [2]: −5.9%
Molecule: CCOc1cccc(-c2ccc(C(C)N3CCN(c4ccc(C(=O)N(C)CC56CC7CC(CC(C7)C5)C6)cc4)CC3)cc2)c1 (stereo not shown) [B3A097-01, N-(1-Adamantylmethyl)-4-[4-[1-[4-(3-ethoxyphenyl)phenyl]ethyl]piperazin-1-yl]-N-methylbenzamide]

- ASMS ratio (%) n = 1 [2]: 0.0%
- ASMS ratio (%) n = 2 [2]: 0.6%
Molecule: CCOc1cccc(-c2csc(CN3CCN(c4ccc(C(=O)Nc5ccc(OC)cc5)nn4)CC3)c2)c1 [B1O093-01, 6-[4-[[4-(3-Ethoxyphenyl)thiophen-2-yl]methyl]piperazin-1-yl]-N-(4-methoxyphenyl)pyridazine-3-carboxamide]

- ASMS ratio (%) n = 1 (AS-MS, mixture library, Bcl-2): 4.2%
- ASMS ratio (%) n = 2 (AS-MS, mixture library, Bcl-2): −8.3%
Molecule: CCOc1cccc(C#Cc2ccccc2C(=O)N2CCN(c3ccc(C(=O)NS(=O)(=O)c4ccc(NCCSc5ccccc5)c([N+](=O)[O-])c4)nn3)CC2)c1 [B2Q007-01, 6-[4-[2-[2-(3-Ethoxyphenyl)ethynyl]benzoyl]piperazin-1-yl]-N-[3-nitro-4-(2-phenylsulfanylethylamino)phenyl]sulfonylpyridazine-3-carboxamide]

- ASMS ratio (%) (n = 1): 0.0%
- ASMS ratio (%) (n = 2): 0.0%
Molecule: CCOc1cccc(-c2ccc(C(=O)N3CCN(c4ccc(C(=O)NS(=O)(=O)C(C)(C)C)nn4)CC3)c3ccccc23)c1 [B2L013-01, N-tert-Butylsulfonyl-6-[4-[4-(3-ethoxyphenyl)naphthalene-1-carbonyl]piperazin-1-yl]pyridazine-3-carboxamide]

- ASMS ratio (%) (n = 1): 0.0%
- ASMS ratio (%) (n = 2): 0.0%
Molecule: CCOc1cccc(-c2ccc(CN3CCN(c4ccc(C(=O)NS(=O)(=O)C(C)(C)C)nn4)CC3)c3ccccc23)c1 [B2L091-01, N-tert-Butylsulfonyl-6-[4-[[4-(3-ethoxyphenyl)naphthalen-1-yl]methyl]piperazin-1-yl]pyridazine-3-carboxamide]

- ASMS ratio (%) n = 1 (AS-MS, mixture library, Bcl-2): 5.8%
- ASMS ratio (%) n = 2 (AS-MS, mixture library, Bcl-2): −7.3%
Molecule: CCOc1cccc(-c2cc(CN3CCN(c4ccc(C(=O)NS(=O)(=O)CC56CC7CC(CC(C7)C5)C6)cc4)CC3)cc(OCC)c2)c1 [B2A055-01, N-(1-Adamantylmethylsulfonyl)-4-[4-[[3-ethoxy-5-(3-ethoxyphenyl)phenyl]methyl]piperazin-1-yl]benzamide]

- ASMS ratio (%) (n = 1): 1.2%
- ASMS ratio (%) (n = 2): −2.0%
Molecule: CCOc1cncc(-c2ccc(C(=O)N3CCN(c4ccc(C(=O)NS(=O)(=O)CCC(F)(F)F)nn4)CC3)cc2C)c1 [B2N004-01, 6-[4-[4-(5-Ethoxypyridin-3-yl)-3-methylbenzoyl]piperazin-1-yl]-N-(3,3,3-trifluoropropylsulfonyl)pyridazine-3-carboxamide]

Molecule: CCOc1cncc(-c2cc(CN3CCN(c4ccc(C(=O)N(CC)CC)cc4)CC3)cc(OC(F)(F)F)c2)c1 [B4J064-01, 4-[4-[[3-(5-Ethoxypyridin-3-yl)-5-(trifluoromethoxy)phenyl]methyl]piperazin-1-yl]-N,N-diethylbenzamide]
- ASMS ratio (%) n = 1 (AS-MS, mixture library, Bcl-2): 1.6%
- ASMS ratio (%) n = 2 (AS-MS, mixture library, Bcl-2): 0.0%

- ASMS ratio (%) (n = 1): 15.8%
- ASMS ratio (%) (n = 2): 11.7%
Molecule: CCOc1cncc(-c2ccc(CN3CCN(c4ccc(C(=O)NS(=O)(=O)c5ccc(NCCSc6ccccc6)c(C(F)(F)F)c5)nn4)CC3)cc2F)c1 [B2R078-01, 6-[4-[[4-(5-Ethoxypyridin-3-yl)-3-fluorophenyl]methyl]piperazin-1-yl]-N-[4-(2-phenylsulfanylethylamino)-3-(trifluoromethyl)phenyl]sulfonylpyridazine-3-carboxamide]

- ASMS ratio (%) n = 2 [2]: 425.9%
Molecule: CCOc1cccc(C#Cc2cc(C(=O)N3CCN(c4ccc(C(=O)N(C)CC56CC7CC(CC(C7)C5)C6)cc4)CC3)cc(C(F)(F)F)c2)c1 [B3A041-01, N-(1-Adamantylmethyl)-4-[4-[3-[2-(3-ethoxyphenyl)ethynyl]-5-(trifluoromethyl)benzoyl]piperazin-1-yl]-N-methylbenzamide]

Molecule: CCOc1cncc(C#Cc2ccccc2C(=O)N2CCN(c3ccc(C(=O)N(CC)CC)cc3)CC2)c1 [B4J030-01, 4-[4-[2-[2-(5-Ethoxypyridin-3-yl)ethynyl]benzoyl]piperazin-1-yl]-N,N-diethylbenzamide]
- ASMS ratio (%) n = 1 [2]: 0.1%
- ASMS ratio (%) n = 2 [2]: 0.8%

- ASMS ratio (%) n = 1 [1]: 2.9%
- ASMS ratio (%) n = 2 [1]: −1.8%
Molecule: CCOc1cccc(-c2cc(C(=O)N3CCN(c4ccc(C(=O)NCC(F)(F)F)nn4)CC3)cc(C(C)(C)C)c2)c1 [B1K015-01, 6-[4-[3-tert-Butyl-5-(3-ethoxyphenyl)benzoyl]piperazin-1-yl]-N-(2,2,2-trifluoroethyl)pyridazine-3-carboxamide]

Molecule: 6-[4-[3-tert-Butyl-5-(5-ethoxypyridin-3-yl)benzoyl]piperazin-1-yl]-N-propylpyridazine-3-carboxamide [B1M061-01]
- ASMS ratio (%) n = 1 [1]: −3.3%
- ASMS ratio (%) n = 2 [1]: −13.1%

- ASMS ratio (%) (n = 1): 6.6%
- ASMS ratio (%) (n = 2): −7.8%
Molecule: CCOc1cccc(-c2ccc(CN3CCN(c4ccc(C(=O)NS(=O)(=O)c5ccc(NCCSc6ccccc6)c(C(F)(F)F)c5)cc4)CC3)cc2C)c1 [B2R047-01, 4-[4-[[4-(3-Ethoxyphenyl)-3-methylphenyl]methyl]piperazin-1-yl]-N-[4-(2-phenylsulfanylethylamino)-3-(trifluoromethyl)phenyl]sulfonylbenzamide]

- ASMS ratio (%) (n = 1): 3.9%
- ASMS ratio (%) (n = 2): −5.0%
Molecule: CCOc1cncc(-c2ccc(C(C)N3CCN(c4ccc(C(=O)NS(=O)(=O)C(C)(C)C)cc4)CC3)cc2)c1 (stereo not shown) [B2L098-01, N-tert-Butylsulfonyl-4-[4-[1-[4-(5-ethoxypyridin-3-yl)phenyl]ethyl]piperazin-1-yl]benzamide]
